Experimental data reported in article PMC10692101, “3-(4-Hydroxy-3-methoxyphenyl) propionic acid contributes to improved hepatic lipid metabolism via GPR41” (Scientific Reports, 2023).
pEC50: −log10 of the molar value.

Legend:
GPR41 [1] = biological target: T1, GPR41 (Mus musculus, UniProt Q3UFD7); test: inhibition of forskolin-induced cAMP in doxycycline-inducible mouse GPR41 HEK293 cells; type: cell-based
T1 construct: gene Ffar3; mouse GPR41 cDNA in pcDNA5/FRT/TO, expressed in Flp-In T-Rex HEK 293 cells
T1 sequence (Q3UFD7 1-319): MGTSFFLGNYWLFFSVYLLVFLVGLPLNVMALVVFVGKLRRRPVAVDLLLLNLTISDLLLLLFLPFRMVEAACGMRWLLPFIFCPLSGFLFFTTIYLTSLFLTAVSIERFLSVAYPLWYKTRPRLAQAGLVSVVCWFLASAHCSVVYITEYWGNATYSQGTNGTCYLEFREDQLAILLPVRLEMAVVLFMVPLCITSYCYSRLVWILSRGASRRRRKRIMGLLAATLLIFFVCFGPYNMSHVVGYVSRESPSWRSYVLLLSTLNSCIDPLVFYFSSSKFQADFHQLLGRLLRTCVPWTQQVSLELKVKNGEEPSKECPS

GPR41 [2] = biological target: T1, GPR41; test: inhibition of forskolin-induced cAMP in doxycycline-inducible mouse GPR41 HEK293 cells; Dox(-) controls inactive; type: cell-based

Compound `COc1cc(/C=C/C(=O)O)ccc1O` [HMCA, 4-hydroxy-3-methoxycinnamic acid] has a pEC50 (GPR41 [1]) of 2.25.

Compound `COc1cc(CCC(=O)O)ccc1O` [HMPA, 3-(4-hydroxy-3-methoxyphenyl) propionic acid] has a pEC50 (GPR41 [2]) of 2.63.
